PMC6884575, “Suppression of FOXM1 activities and breast cancer growth in vitro and in vivo by a new class of compounds” (NPJ Breast Cancer, 2019)

Legend:
FOXM1 = target: T1, FOXM1 (Homo sapiens, UniProt Q08050); test: tr-FRET competitive binding assay with Fl-NB-72 probe; set-up: we attached a terbium donor to purified, full length FOXM1 through a streptavidin-biotin linker; settings: displacement of Fl-NB-72 (100 nM), tr-FRET
T1 sequence (Q08050 1-763): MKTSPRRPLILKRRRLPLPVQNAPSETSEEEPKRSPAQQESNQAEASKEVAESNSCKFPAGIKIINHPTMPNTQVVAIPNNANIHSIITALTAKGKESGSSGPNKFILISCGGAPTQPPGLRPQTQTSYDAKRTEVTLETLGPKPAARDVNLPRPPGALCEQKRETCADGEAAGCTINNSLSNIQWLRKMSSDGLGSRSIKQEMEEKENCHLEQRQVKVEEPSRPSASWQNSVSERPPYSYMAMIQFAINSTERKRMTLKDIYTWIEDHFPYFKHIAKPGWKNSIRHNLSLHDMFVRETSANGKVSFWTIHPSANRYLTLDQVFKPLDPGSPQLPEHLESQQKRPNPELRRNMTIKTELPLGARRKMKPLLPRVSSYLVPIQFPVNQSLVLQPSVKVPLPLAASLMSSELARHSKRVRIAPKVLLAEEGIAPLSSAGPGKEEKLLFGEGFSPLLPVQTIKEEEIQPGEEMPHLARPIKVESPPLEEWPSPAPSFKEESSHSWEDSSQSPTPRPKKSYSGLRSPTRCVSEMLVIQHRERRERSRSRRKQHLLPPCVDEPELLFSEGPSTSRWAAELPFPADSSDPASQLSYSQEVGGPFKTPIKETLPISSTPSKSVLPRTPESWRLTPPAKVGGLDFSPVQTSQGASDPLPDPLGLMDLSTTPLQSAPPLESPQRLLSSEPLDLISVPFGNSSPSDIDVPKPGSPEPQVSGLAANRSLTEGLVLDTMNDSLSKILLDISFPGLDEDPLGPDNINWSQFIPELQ
Experimental: Competitive binding assays of compound binding to FOXM1 by tr-FRET were done in FRET buffer (20 mM Tris, pH 7.5, 50 mM NaCl, 0.01% NP-40 detergent, 10% glycerol) with 0.3 mg/ml ovalbumin and 0.1 mM butylated hydroxy-anisole added fresh daily. Solutions of the protein, fluorescent probe and compound dilutions were prepared at 3× concentrations, the final dilution taking place as they were mixed together in equal portions on the microtiter plate.
Final concentrations were 10^−5 M to 10^−9 M, with the last point being buffer only, no compound. Fluorescein-NB-72 (Fl-NB- 72) was prepared at 1 mM in DMF and stored at −20 °C. It was diluted into FRET buffer to give 100 nM in the assay. Incubations were done in duplicate on black Molecular Devices 96-well microtiter plates. 5 μl of Fl-NB-72 and 5 μl of the compound dilutions, were mixed together on the plate. To this was added 5 µl biotin-FoxM1 and incubated in the dark at room temperature, for 1 h. […] To correct for background signals, biotin-FOXM1 was omitted, and diffusion-enhanced FRET incubations were done in duplicate on black Molecular Devices 96-well microtiter plates. Five microliter of Fl-NB-72 and 5 μl of the compound solutions were mixed together and then 5 µl of FRET buffer plus SaTb was added, mixed and incubated in the dark at room temperature, for 1 h. The tr-FRET signals measured as above were subtracted as a background from the first incubations that contained biotin-FOXM1. Graphs were prepared using Graph Pad/Prism 4.

MCF7 cells = test: RNA-Seq gene regulation in MCF7 cells; format: cell-based, human
Experimental: For gene expression analysis, total RNA was extracted from cells using Trizol reagent and further cleaned using the Turbo DNase and RNAqueous kits (ThermoFisher). Cells were treated with Veh (0.1% EtOH), or with the compounds indicated for 9 h or 24 h. Once the sample quality and replicate reproducibility were verified, samples from each group were subjected to sequencing. RNA at a concentration of 100 ng/µl in nuclease-free water was used for library construction. cDNA libraries were prepared with the mRNA-TruSeq Kit (Illumina, Inc.). In brief, the poly-A containing mRNA was purified from total RNA, the RNA was fragmented, double-stranded cDNA was generated from fragmented RNA, and adapters were ligated to the ends.
The paired-end read data from the HiSeq 4000 were processed and analyzed through a series of steps. Base calling and de-multiplexing of samples within each lane were done with Casava 1.8.2. The RNA sequences were prepared with Illumina’s TruSeq Stranded mRNAseq Sample Prep kit. Reads were trimmed of adapters and low expression data using Trimmomatic version 0.38.[42] The STAR alignment tool version 2.5.3a was used to align the sequenced reads to the GRCh37 human genome from Ensembl.[43] Gene counts were calculated using subread version 1.5.2.[44],[45] The edgeR Bioconductor package in R was used for normalization and differential expression analysis. Default normalization methods were used, specifically trimmed mean of M values or TMM was used to calculate the normalized expression values. This method calculates the weighted trimmed mean of the log expression ratios in a gene-wise fashion.[46],[47] We considered genes with fold-change > 2 and p-value < 0.05 as statistically significant, differentially expressed.

Clc1ccc(C(=C2C3CC4CC(C3)CC2C4)c2ccc(OCCCCCCN3CCCC3)cc2)cc1 [NB-55]
IC50 (FOXM1): 1.24 µM | genes regulated that overlapped with NB-73 regulated genes (MCF7 cells; MCF7, 9 h, more than 2-fold, FDR < 0.05): 72% | genes regulated more than 2-fold (Venn diagram) (MCF7 cells; MCF7, 9 h treatment, p < 0.05, FDI-6 20 µM): 567 genes
